Measurements taken from patent US20100216779A1 (GLAXOSMITHKLINE LLC, priority 2007, published 2010).

Legend:
Assay type in all cases: cell-based
[1] = tested on: NCI-H929 (multiple myeloma); assay: Inhibition of cell proliferation, CellTiter-Glo, NCI-H929; conditions: Homo sapiens, 72 h
Method in brief: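 Cells were grown in medium with 10% FBS at 37° C, 5% CO2. Cell number was read as CellTiter-Glo luminescence (cellular ATP), with untreated wells as control.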

[2] = target: T1, human IGF-1R (NIH-3T3 cells over expressing human IGF-1R) (Homo sapiens, UniProt P08069); assay: IGF-1R cellular autophosphorylation (DELFIA); conditions: IGF-1 stimulated
T1 construct: expressed in transfected cells; host or cells: NIH-3T3 (mouse fibroblasts)
T1 sequence (P08069 31-1367): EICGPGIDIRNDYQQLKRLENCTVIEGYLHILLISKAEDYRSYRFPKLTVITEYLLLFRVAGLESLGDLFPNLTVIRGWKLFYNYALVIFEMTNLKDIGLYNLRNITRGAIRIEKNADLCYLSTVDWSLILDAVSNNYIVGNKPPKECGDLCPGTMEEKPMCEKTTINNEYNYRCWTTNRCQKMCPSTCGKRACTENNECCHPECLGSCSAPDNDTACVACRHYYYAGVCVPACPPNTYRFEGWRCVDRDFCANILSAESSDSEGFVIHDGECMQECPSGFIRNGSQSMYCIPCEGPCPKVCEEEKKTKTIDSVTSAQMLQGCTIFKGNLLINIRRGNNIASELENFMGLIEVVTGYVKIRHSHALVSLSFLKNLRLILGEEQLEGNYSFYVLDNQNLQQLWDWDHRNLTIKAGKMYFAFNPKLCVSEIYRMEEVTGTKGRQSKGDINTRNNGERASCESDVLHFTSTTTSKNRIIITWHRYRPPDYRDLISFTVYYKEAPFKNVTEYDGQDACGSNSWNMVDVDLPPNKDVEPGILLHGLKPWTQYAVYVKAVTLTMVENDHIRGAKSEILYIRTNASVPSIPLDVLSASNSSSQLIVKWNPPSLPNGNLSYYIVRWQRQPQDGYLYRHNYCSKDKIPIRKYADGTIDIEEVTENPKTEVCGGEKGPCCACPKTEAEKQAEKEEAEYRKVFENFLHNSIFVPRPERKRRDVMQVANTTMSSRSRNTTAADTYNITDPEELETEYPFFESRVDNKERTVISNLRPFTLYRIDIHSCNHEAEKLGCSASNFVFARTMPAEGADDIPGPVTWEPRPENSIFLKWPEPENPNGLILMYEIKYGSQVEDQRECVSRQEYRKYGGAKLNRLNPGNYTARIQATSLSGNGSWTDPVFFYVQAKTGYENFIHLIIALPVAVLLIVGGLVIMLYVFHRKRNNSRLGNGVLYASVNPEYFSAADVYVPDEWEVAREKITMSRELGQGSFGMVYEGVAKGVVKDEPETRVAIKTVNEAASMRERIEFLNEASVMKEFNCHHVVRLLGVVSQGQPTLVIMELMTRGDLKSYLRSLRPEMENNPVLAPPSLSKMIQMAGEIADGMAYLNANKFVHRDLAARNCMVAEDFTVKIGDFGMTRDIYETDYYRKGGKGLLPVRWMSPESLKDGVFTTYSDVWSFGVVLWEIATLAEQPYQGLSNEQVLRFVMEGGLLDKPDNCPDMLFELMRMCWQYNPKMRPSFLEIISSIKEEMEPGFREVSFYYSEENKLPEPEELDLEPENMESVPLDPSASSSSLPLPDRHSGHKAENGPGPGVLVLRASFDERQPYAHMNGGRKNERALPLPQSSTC
Method in brief: (§1)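 Autophosphorylation of IGF-1R or IR is measured in NIH-3T3 lines overexpressing each human receptor after 2 h compound pretreatment and a 15 min ligand challenge (IGF-1 30 ng/mL; insulin 3 ug/mL). Fluorescence is normalised to 100% stimulation.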

[3] = tested on: COLO205 (colon); assay: Inhibition of cell proliferation, CellTiter-Glo, COLO205; conditions: Homo sapiens, COLO 205, 72 h
Method in brief: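 Exponentially growing COLO205 cells in medium with 10% FBS were plated below 2000 cells/well at 37 °C, 5% CO2. Untreated wells served as controls.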

[4] = target: T2, IR (NIH-3T3 cells over expressing human IGF-1R or IR) (Homo sapiens, UniProt P06213); assay: IR cellular autophosphorylation (DELFIA); conditions: NIH-3T3 cells over expressing IR, insulin stimulated
T2 construct: expressed in transfected cells; host or cells: NIH-3T3 (mouse fibroblasts)
T2 sequence (P06213 28-1382): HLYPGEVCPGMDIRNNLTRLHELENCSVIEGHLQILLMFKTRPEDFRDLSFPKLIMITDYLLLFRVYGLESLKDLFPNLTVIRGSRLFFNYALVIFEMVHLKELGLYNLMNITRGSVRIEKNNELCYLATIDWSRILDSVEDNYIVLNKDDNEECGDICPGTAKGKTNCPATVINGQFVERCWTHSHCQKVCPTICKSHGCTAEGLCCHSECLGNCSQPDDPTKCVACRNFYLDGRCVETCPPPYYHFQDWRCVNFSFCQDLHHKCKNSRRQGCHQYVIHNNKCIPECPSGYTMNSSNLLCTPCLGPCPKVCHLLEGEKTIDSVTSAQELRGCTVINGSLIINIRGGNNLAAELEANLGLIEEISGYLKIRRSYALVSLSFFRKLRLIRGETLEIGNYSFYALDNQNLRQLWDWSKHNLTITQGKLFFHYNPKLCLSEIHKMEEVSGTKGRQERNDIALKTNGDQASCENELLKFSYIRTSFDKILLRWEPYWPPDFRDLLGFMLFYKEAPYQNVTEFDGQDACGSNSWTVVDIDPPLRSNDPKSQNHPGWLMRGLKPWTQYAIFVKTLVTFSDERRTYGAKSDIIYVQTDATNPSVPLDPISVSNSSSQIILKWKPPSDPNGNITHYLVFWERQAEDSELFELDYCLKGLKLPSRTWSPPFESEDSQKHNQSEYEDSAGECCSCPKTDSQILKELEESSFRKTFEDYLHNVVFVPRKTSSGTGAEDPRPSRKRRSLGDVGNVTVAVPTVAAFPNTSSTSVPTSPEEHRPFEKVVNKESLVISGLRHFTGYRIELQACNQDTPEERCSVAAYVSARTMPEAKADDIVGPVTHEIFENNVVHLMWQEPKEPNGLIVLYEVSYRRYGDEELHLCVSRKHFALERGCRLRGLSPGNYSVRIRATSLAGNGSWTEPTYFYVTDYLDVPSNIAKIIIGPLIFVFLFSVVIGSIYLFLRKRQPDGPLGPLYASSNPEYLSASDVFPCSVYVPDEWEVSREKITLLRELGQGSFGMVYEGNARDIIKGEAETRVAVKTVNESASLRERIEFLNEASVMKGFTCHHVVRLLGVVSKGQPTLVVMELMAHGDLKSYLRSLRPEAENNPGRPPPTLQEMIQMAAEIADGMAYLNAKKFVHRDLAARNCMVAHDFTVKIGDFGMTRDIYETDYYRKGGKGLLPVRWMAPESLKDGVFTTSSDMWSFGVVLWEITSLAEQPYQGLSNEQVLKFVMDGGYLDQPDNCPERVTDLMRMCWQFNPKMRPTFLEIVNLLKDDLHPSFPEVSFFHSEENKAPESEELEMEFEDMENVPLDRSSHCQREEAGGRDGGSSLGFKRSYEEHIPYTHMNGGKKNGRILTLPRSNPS
Method in brief: as §1

Structure (SMILES) | IC50 [1] [nM] | IC50 [2] [nM] | IC50 [3] [nM] | IC50 [4] [nM]
CS(=O)(=O)CCN1CCN(C2CCN(c3ccc(Nc4nccc(-c5c(-c6cccc(C(=O)Nc7c(F)cccc7F)c6)nc6ccccn56)n4)c(OCC(F)(F)F)c3)CC2)CC1 [Example 120, N-(2,6-difluorophenyl)-3-{3-[2-({4-(4-{4-[2-(methylsulfonyl)ethyl]-1-piperazinyl}-1-piperidinyl)-2-[(2,2,2-trifluoroethyl)oxy]phenyl}amino)-4-pyrimidinyl]imidazo[1,2-a]pyridin-2-yl}benzamide] | < 250 | < 100 | 250 to 1000 | < 100
COc1cc(N2CCC(N3CCN(CCF)CC3)CC2)ccc1Nc1nccc(-c2c(-c3cccc(C(=O)Nc4c(F)cccc4F)c3)nc3cc(C(F)(F)F)ccn23)n1 [Example 189, N-(2,6-difluorophenyl)-3-[3-(2-{[4-{4-[4-(2-fluoroethyl)-1-piperazinyl]-1-piperidinyl}-2-(methyloxy)phenyl]amino}-4-pyrimidinyl)-7-(trifluoromethyl)imidazo[1,2-a]pyridin-2-yl]benzamide] | 250 to 1000 | 100 to 500 | > 1000 | > 500
COCCN1CCN(c2ccc(Nc3nccc(-c4c(-c5cccc(C(=O)Nc6c(F)cccc6F)c5)nc5ccccn45)n3)c(OC)c2)CC1 [Example 240, N-(2,6-difluorophenyl)-3-(3-{2-[(2-(methyloxy)-4-{4-[2-(methyloxy)ethyl]-1-piperazinyl}phenyl)amino]-4-pyrimidinyl}imidazo[1,2-a]pyridin-2-yl)benzamide] | 250 to 1000 | < 100 | 250 to 1000 | < 100
COc1cc(N2CCC(CCS(C)(=O)=O)CC2)c(C)cc1Nc1nccc(-c2c(-c3ccc(OC)c(C(=O)Nc4c(F)cccc4F)c3)nc3ccccn23)n1 [Example 230, N-(2,6-difluorophenyl)-5-(3-{2-[(5-methyl-2-(methyloxy)-4-{4-[2-(methylsulfonyl)ethyl]-1-piperidinyl}phenyl)amino]-4-pyrimidinyl}imidazo[1,2-a]pyridin-2-yl)-2-(methyloxy)benzamide] | < 250 | < 100 | < 250 | < 100
CCc1cc(Nc2nccc(-c3c(-c4cccc(C(=O)Nc5c(F)cccc5F)c4)nc4ccccn34)n2)c(OC)cc1N1CCC(N2CCN(S(C)(=O)=O)CC2)CC1 [Example 244, N-(2,6-difluorophenyl)-3-(3-{2-[(5-ethyl-2-(methyloxy)-4-{4-[4-(methylsulfonyl)-1-piperazinyl]-1-piperidinyl}phenyl)amino]-4-pyrimidinyl}imidazo[1,2-a]pyridin-2-yl)benzamide] | 250 to 1000 | < 100 | 250 to 1000 | < 100
COc1cc(N2CCC(N3CCN(C(C)=O)CC3)CC2)ccc1Nc1nccc(-c2c(-c3cccc(C(=O)Nc4c(F)cccc4F)c3)nc3ccccn23)n1 [Example 70] | < 250 | < 100 | 250 to 1000 | < 100
COc1cc(N2CCC(N3CCN(S(C)(=O)=O)CC3)CC2)c(C)cc1Nc1nccc(-c2c(-c3cccc(C(=O)Nc4c(F)cccc4F)c3)nc3ccccn23)n1 [Example 245, N-(2,6-difluorophenyl)-3-(3-{2-[(5-methyl-2-(methyloxy)-4-{4-[4-(methylsulfonyl)-1-piperazinyl]-1-piperidinyl}phenyl)amino]-4-pyrimidinyl}imidazo[1,2-a]pyridin-2-yl)benzamide] | < 250 | < 100 | 250 to 1000 | < 100
COc1cc(N2CCC(N3CCN(CCF)CC3)CC2)ccc1Nc1nccc(-c2c(-c3cccc(C(=O)Nc4c(F)cccc4F)c3)nc3c(C)cccn23)n1 [Example 60, N-(2,6-difluorophenyl)-3-[3-(2-{[4-{4-[4-(2-fluoroethyl)-1-piperazinyl]-1-piperidinyl}-2-(methyloxy)phenyl]amino}-4-pyrimidinyl)-8-methylimidazo[1,2-a]pyridin-2-yl]benzamide] | 250 to 1000 | < 100 | 250 to 1000 | < 100
CCOc1ccc(-c2nc3ccccn3c2-c2ccnc(Nc3cc(C)c(N4CCN(CCOC)CC4)cc3OC)n2)cc1C(=O)Nc1c(F)cccc1F [Example 241, N-(2,6-difluorophenyl)-2-(ethyloxy)-5-(3-{2-[(5-methyl-2-(methyloxy)-4-{4-[2-(methyloxy)ethyl]-1-piperazinyl}phenyl)amino]-4-pyrimidinyl}imidazo[1,2-a]pyridin-2-yl)benzamide] | < 250 | < 100 | 250 to 1000 | < 100
CCCN1CCN(c2ccc(Nc3nccc(-c4c(-c5ccc(OC)c(C(=O)Nc6c(F)cccc6F)c5)nc5ccccn45)n3)c(OC)c2)CC1 [Example 174, N-(2,6-difluorophenyl)-2-(methyloxy)-5-[3-(2-{[2-(methyloxy)-4-(4-propyl-1-piperazinyl)phenyl]amino}-4-pyrimidinyl)imidazo[1,2-a]pyridin-2-yl]benzamide] | < 250 | < 100 | 250 to 1000 | < 100
CCOc1cc(N2CCC(N3CCN(CCS(C)(=O)=O)CC3)CC2)ccc1Nc1nccc(-c2c(-c3cccc(C(=O)Nc4c(F)cccc4F)c3)nc3ccccn23)n1 [Example 119, N-(2,6-difluorophenyl)-3-[3-(2-{[2-(ethyloxy)-4-(4-{4-[2-(methylsulfonyl)ethyl]-1-piperazin-yl]-1-piperidinyl)phenyl]amino}-4-pyrimidinyl)imidazo[1,2-a]pyridin-2-yl]benzamide] | < 250 | < 100 | 250 to 1000 | < 100
COc1cc(N2CCC(N3CCC(C(F)(F)F)CC3)CC2)ccc1Nc1nccc(-c2c(-c3cccc(C(=O)Nc4c(F)cccc4F)c3)nc3ccccn23)n1 [Example 52, N-(2,6-difluorophenyl)-3-{3-[2-({2-(methyloxy)-4-[4-(trifluoromethyl)-1,4′-bipiperidin-1′-yl]phenyl}amino)-4-pyrimidinyl]imidazo[1,2-a]pyridin-2-yl}benzamide] | 250 to 1000 | < 100 | 250 to 1000 | 100 to 500
COc1cc(N2CCC(N3CCN4CCOC[C@@H]4C3)CC2)ccc1Nc1nccc(-c2c(-c3ccc(OC)c(C(=O)Nc4c(F)cccc4F)c3)nc3ccccn23)n1 [Example 88, N-(2,6-difluorophenyl)-5-[3-(2-{[4-{4-[(9aS)-hexahydropyrazino[2,1-c][1,4]oxazin-8(1H)-yl]-1-piperidinyl}-2-(methyloxy)phenyl]amino}-4-pyrimidinyl)imidazo[1,2-a]pyridin-2-yl]-2-(methyloxy)benzamide] | < 250 | < 100 | > 1000 | < 100
CCOc1cc(N2CCC(N3CCN(S(C)(=O)=O)CC3)CC2)ccc1Nc1nccc(-c2c(-c3cccc(C(=O)Nc4c(F)cccc4F)c3)nc3ccccn23)n1 [Example 224, N-(2,6-difluorophenyl)-3-(3-{2-[(2-(ethyloxy)-4-{4-[4-(methylsulfonyl)-1-piperazinyl]-1-piperidinyl}phenyl)amino]-4-pyrimidinyl}imidazo[1,2-a]pyridin-2-yl)benzamide] | < 250 | < 100 | 250 to 1000 | < 100
COc1cc(N2CCC(N3CCN(CCF)CC3)CC2)ccc1Nc1nccc(-c2c(-c3ccc(OC)c(C(=O)Nc4c(F)cccc4F)c3)nc3cc(F)ccn23)n1 [Example 197, N-(2,6-difluorophenyl)-5-[7-fluoro-3-(2-{[4-{4-[4-(2-fluoroethyl)-1-piperazinyl]-1-piperidinyl]-2-(methyloxy)phenyl]amino}-4-pyrimidinyl)imidazo[1,2-a]pyridin-2-yl]-2-(methyloxy)benzamide] | < 250 | < 100 | 250 to 1000 | < 100
COc1cc(N2CCC(C3CCN(CCS(C)(=O)=O)CC3)CC2)ccc1Nc1nccc(-c2c(-c3cccc(C(=O)Nc4c(F)cccc4F)c3)nc3ccccn23)n1 [Example 97, N-(2,6-difluorophenyl)-3-(3-{2-[(2-(methyloxy)-4-{1′-[2-(methylsulfonyl)ethyl]-4,4′-bipiperidin-1-yl}phenyl)amino]-4-pyrimidinyl}imidazo[1,2-a]pyridin-2-yl)benzamide] | 250 to 1000 | < 100 | 250 to 1000 | < 100
COc1cc(N2CCC(N3CCN(S(C)(=O)=O)CC3)CC2)c(C)cc1Nc1nccc(-c2c(-c3ccc(OC)c(C(=O)Nc4c(F)cccc4F)c3)nc3ccccn23)n1 [Example 236, N-(2,6-difluorophenyl)-5-(3-{2-[(5-methyl-2-(methyloxy)-4-{4-[4-(methylsulfonyl)-1-piperazinyl]-1-piperidinyl}phenyl)amino]-4-pyrimidinyl}imidazo[1,2-a]pyridin-2-yl)-2-(methyloxy)benzamide] | < 250 | < 100 | < 250 | < 100
CCOc1cc(N2CCN(CCS(C)(=O)=O)CC2)c(C)cc1Nc1nccc(-c2c(-c3ccc(OCC)c(C(=O)Nc4c(F)cccc4F)c3)nc3ccccn23)n1 [Example 248, N-(2,6-difluorophenyl)-2-(ethyloxy)-5-(3-{2-[(2-(ethyloxy)-5-methyl-4-{4-[2-(methylsulfonyl)ethyl]-1-piperazinyl}phenyl)amino]-4-pyrimidinyl}imidazo[1,2-a]pyridin-2-yl)benzamide] | < 250 | < 100 | < 250 | < 100
